# Biological target: T1, human HAQ STING isoform (hSTING HAQ) (Homo sapiens, UniProt Q86WV6, G230A/H232R/R293Q/R71H)
# T1 construct: THP1 cells express the naturally occurring human HAQ STING isoform (hSTING HAQ); host or cells: THP1
# Experiment: IFN-β mRNA level in THP1 cells (qPCR, STING agonist cellular activity)
# Type: cell-based
# Settings: compound at 3.6 μM, 2 hrs, IFNβ expression normalized against GAPDH by the 2^-ΔΔCT method, DMSO = 1.0
# Description: Cellular activity of STING agonists was determined by mRNA levels of IFN-β in THP1 (Otwo Biotech HTX1621) cell line. THP1 cells express the naturally occurring human HAQ STING isoform (hSTING HAQ), which responses to the activation of STING agonists.
# THP1 cells were seeded into Falcon 12-well cell Culture Plate (Corning #353043) at 9×10^5 cells per well, in 1 ml complete culture medium (RPMI-1640, GIBCO #C1187500BT) containing 10% heat inactivated FBS (GIBCO #10099141C), 1% Pen-Strep (HyClone SV30010) and incubated at 37° ΔC, 5% CO2 overnight. On day 2, compound (final concentration at 3.6 μM) or DMSO (0.1%, Sigma Aldrich #8418) was added to THP1 cells and further incubated for 2 hrs min at 37° ΔC, 5% CO2. Cells were then collected for RNA extraction.
# Total RNA was extracted with TRIzol reagent (Invitrogen #15596026) and […] was used to synthesize first-strand cDNA with Maxima First Strand cDNA Synthesis Kit (TAKARA #RR036A). Quantitative PCR was performed with Maxima SYBR Green qPCR Master Mix (ABI #4367659, USA). The primer sequences used were as follows: GAPDH (5′-[…]-3′, 5′-[…]-3′). INFP3 (5′-[…]-3′,5′-[…]-3′) Real-time PCR was performed on QuantStudio™ 5 Real-Time PCR System (Thermo Fisher). Relative expression levels of IFNβ gene were normalized against the level of GAPDH expression by the 2^−ΔΔCT method. Each PCR reaction was performed in triplicates.
# T1 sequence (Q86WV6 whole entry R71H/G230A/H232R/R293Q, canonical isoform): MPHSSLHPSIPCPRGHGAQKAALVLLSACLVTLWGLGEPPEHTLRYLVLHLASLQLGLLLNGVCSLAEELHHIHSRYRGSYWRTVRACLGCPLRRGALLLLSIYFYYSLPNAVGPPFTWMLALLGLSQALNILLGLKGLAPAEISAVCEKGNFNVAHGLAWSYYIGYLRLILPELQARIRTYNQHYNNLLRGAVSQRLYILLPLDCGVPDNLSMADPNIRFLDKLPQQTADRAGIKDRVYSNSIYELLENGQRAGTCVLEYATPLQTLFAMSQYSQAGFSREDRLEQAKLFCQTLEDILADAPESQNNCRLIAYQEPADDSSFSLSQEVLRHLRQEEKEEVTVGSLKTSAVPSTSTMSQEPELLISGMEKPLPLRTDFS
row,Compound,Relative mRNA INFβ/GAPDH THP 1
1,"CNC(=O)c1cc(CN(Cc2cn3c4c(c(F)c(F)cc4c2=O)OCC3)[C@H]2CCCN(c3cnccn3)C2)ccn1 [Compound 91, (S)-4-((((9,10-difluoro-7-oxo-2,3-dihydro-7H-[1,4]oxazino[2,3,4-ij]quinolin-6-yl)methyl)(1-(pyrazin-2-yl)piperidin-3-yl)amino)methyl)-N-methylpicolinamide]",1.0
2,"COc1cc(CCN(Cc2cn3c4c(c(F)c(F)cc4c2=O)OCC3C)[C@H]2CCCN(c3ccc(N)nc3)C2)ccn1 (stereo partly drawn) [Compound 8, 6-((((S)-1-(6-aminopyridin-3-yl)piperidin-3-yl)(2-(2-methoxypyridin-4-yl)ethyl)amino)methyl)-9,10-difluoro-3-methyl-2H-[1,4]oxazino[2,3,4-ij]quinolin-7(3H)-one]",5.7
3,"COc1cc(CN(Cc2cn3c4c(c(F)c(F)cc4c2=O)OCCC3)[C@H]2CCCN(c3ccc(N)nc3)C2)ccn1 [Compound 47, (S)-7-(((1-(6-aminopyridin-3-yl)piperidin-3-yl)((2-methoxypyridin-4-yl)methyl)amino)methyl)-10,11-difluoro-3,4-dihydro-[1,4]oxazepino[2,3,4-ij]quinolin-8(2H)-one]",710.4
4,"Cc1cc(CN(Cc2cn3c4c(c(F)c(F)cc4c2=O)SCC3)[C@H]2CCCN(c3cnccn3)C2)ccn1 [Compound 97, (S)-9,10-difluoro-6-((((2-methylpyridin-4-yl)methyl)(1-(pyrazin-2-yl)piperidin-3-yl)amino)methyl)-2,3-dihydro-7H-[1,4]thiazino[2,3,4-ij]quinolin-7-one]",1.0
5,"Cc1cc(CN(Cc2cn3c4c(c(F)c(F)cc4c2=O)OCC3C)[C@H]2CCCN(c3ccc(C#N)nc3)C2)ccn1 (stereo partly drawn) [Compound 12, 5-((3S)-3-(((9,10-difluoro-3-methyl-7-oxo-3,7-dihydro-2H-[1,4]oxazino[2,3,4-ij]quinolin-6-yl)methyl)((2-methylpyridin-4-yl)methyl)amino)piperidin-1-yl)picolinonitrile]",14.1
6,"COc1cc(CN(Cc2cn3c4c(c(F)c(F)cc4c2=O)OCC3C)[C@H]2CCCN(c3cccnc3)C2)ccn1 (stereo partly drawn) [Compound 22, 9,10-difluoro-6-((((2-methoxypyridin-4-yl)methyl)((S)-1-(pyridin-3-yl)piperidin-3-yl)amino)methyl)-3-methyl-2H-[1,4]oxazino[2,3,4-ij]quinolin-7(3H)-one]",6463.9
7,"Cc1ccc(N2CCC[C@H](N(Cc3ccnc(C)c3)Cc3cn4c5c(c(O)c(F)cc5c3=O)OCC4C)C2)cn1 (stereo partly drawn) [Compound 102, 9-fluoro-10-hydroxy-3-methyl-6-((((S)-1-(6-methylpyridin-3-yl)piperidin-3-yl)((2-methylpyridin-4-yl)methyl)amino)methyl)-2,3-dihydro-7H-[1,4]oxazino[2,3,4-ij]quinolin-7-one]",0.9
8,"Nc1ccc(N2CCC[C@H](N(Cc3ccncc3Cl)Cc3cn4c5c(c(F)c(F)cc5c3=O)OCC4)C2)cn1 [Compound 79, (S)-6-(((1-(6-aminopyridin-3-yl)piperidin-3-yl)((3-chloropyridin-4-yl)methyl)amino)methyl)-9,10-difluoro-2,3-dihydro-7H-[1,4]oxazino[2,3,4-ij]quinolin-7-one]",335.5
9,"Nc1ccc(N2CCC[C@H](N(Cc3ccc(C(F)(F)F)cc3F)Cc3cn4c5c(c(F)c(F)cc5c3=O)OCC4)C2)cn1 [Compound 74, (S)-6-(((1-(6-aminopyridin-3-yl)piperidin-3-yl)(2-fluoro-4-(trifluoromethyl)benzyl)amino)methyl)-9,10-difluoro-2,3-dihydro-7H-[1,4]oxazino[2,3,4-ij]quinolin-7-one]",1.4
10,"Cc1cc(CN(Cc2cn3c4c(c(F)c(F)cc4c2=O)OCC3C)[C@H]2CCCN(c3ccc(C(N)=O)nc3)C2)ccn1 (stereo partly drawn) [Compound 13, 5-((3S)-3-(((9,10-difluoro-3-methyl-7-oxo-3,7-dihydro-2H-[1,4]oxazino[2,3,4-ij]quinolin-6-yl)methyl)((2-methylpyridin-4-yl)methyl)amino)piperidin-1-yl)picolinamide]",3.6
11,"Nc1ccc(N2CCC[C@H](N(Cc3ccncc3)Cc3cn4c5c(c(F)c(F)cc5c3=O)OCC4)C2)cn1 [Compound 70, (S)-6-(((1-(6-aminopyridin-3-yl)piperidin-3-yl)(pyridin-4-ylmethyl)amino)methyl)-9,10-difluoro-2,3-dihydro-7H-[1,4]oxazino[2,3,4-ij]quinolin-7-one]",6236.9
12,"NC(=O)c1cc(CN(Cc2cn3c4c(c(F)c(F)cc4c2=O)OCC3)[C@H]2CCCN(c3cnccn3)C2)ccn1 [Compound 92, (S)-4-((((9,10-difluoro-7-oxo-2,3-dihydro-7H-[1,4]oxazino[2,3,4-ij]quinolin-6-yl)methyl)(1-(pyrazin-2-yl)piperidin-3-yl)amino)methyl)picolinamide]",1.1
13,"Cc1cc(CN(Cc2cn3c4c(c(F)c(F)cc4c2=O)OCC3)[C@H]2CCCN(c3ccc(N)nc3)C2)ccn1 [Compound 71, (S)-6-(((1-(6-aminopyridin-3-yl)piperidin-3-yl)((2-methylpyridin-4-yl)methyl)amino)methyl)-9,10-difluoro-2,3-dihydro-7H-[1,4]oxazino[2,3,4-ij]quinolin-7-one]",6763.7

# Further lines, results first:
row,Relative mRNA INFβ/GAPDH THP 1,Compound
1,366.2,"COc1cc(CN(Cc2cn3c4c(c(-c5ccncc5)c(F)cc4c2=O)OCC3C)[C@H]2CCCN(c3ccc(N)nc3)C2)ccn1 (stereo partly drawn) [Compound 56, 6-((((S)-1-(6-aminopyridin-3-yl)piperidin-3-yl)((2-methoxypyridin-4-yl)methyl)amino)methyl)-9-fluoro-3-methyl-10-(pyridin-4-yl)-2H-[1,4]oxazino[2,3,4-ij]quinolin-7(3H)-one]"
2,580.9,"COc1cc(CN(Cc2cn3c4c(c(C)c(F)cc4c2=O)OCC3C)[C@H]2CCCN(c3ccc(N)nc3)C2)ccn1 (stereo partly drawn) [Compound 57, 6-((((S)-1-(6-aminopyridin-3-yl)piperidin-3-yl)((2-methoxypyridin-4-yl)methyl)amino)methyl)-9-fluoro-3,10-dimethyl-2H-[1,4]oxazino[2,3,4-ij]quinolin-7(3H)-one]"
3,3.5,"COc1cc(CN(Cc2cn3c4c(c(N5CCN(CNC(N)=O)CC5)c(F)cc4c2=O)OCC3C)[C@H]2CCCN(c3ccc(N)nc3)C2)ccn1 (stereo partly drawn) [Compound 26, 1-((4-(6-((((S)-1-(6-aminopyridin-3-yl)piperidin-3-yl)((2-methoxypyridin-4-yl)methyl)amino)methyl)-9-fluoro-3-methyl-7-oxo-3,7-dihydro-2H-[1,4]oxazino[2,3,4-ij]quinolin-10-yl)piperazin-1-yl)methyl)urea]"
4,2625.9,"COc1cc(CN(Cc2cn3c4c(c(F)c(F)cc4c2=O)OCC3C)[C@H]2CCCN(c3ccc(N(C)C)nc3)C2)ccn1 (stereo partly drawn) [Compound 19, 11-[[[(3S)-1-[6-(dimethylamino)-3-pyridyl]-3-piperidyl]-[(2-methoxy-4-pyridyl)methyl]amino]methyl]-6,7-difluoro-2-methyl-4-oxa-1-azatricyclo[7.3.1.05,13]trideca-5(13),6,8,11-tetraen-10-one]"
5,672.0,"COc1cc(CN(Cc2cn3c4c(c(N5CC(O)C5)c(F)cc4c2=O)OCC3C)[C@H]2CCCN(c3ccc(N)nc3)C2)ccn1 (stereo partly drawn) [Compound 38, 6-((((S)-1-(6-aminopyridin-3-yl)piperidin-3-yl)((2-methoxypyridin-4-yl)methyl)amino)methyl)-9-fluoro-10-(3-hydroxyazetidin-1-yl)-3-methyl-2H-[1,4]oxazino[2,3,4-ij]quinolin-7(3H)-one]"
6,581.3,"CCC1COc2c(F)c(F)cc3c(=O)c(CN(Cc4ccnc(OC)c4)[C@H]4CCCN(c5ccc(N)nc5)C4)cn1c23 (stereo partly drawn) [Compound 100, 6-((((S)-1-(6-aminopyridin-3-yl)piperidin-3-yl)((2-methoxypyridin-4-yl)methyl)amino)methyl)-3-ethyl-9,10-difluoro-2,3-dihydro-7H-[1,4]oxazino[2,3,4-ij]quinolin-7-one]"
7,54.8,"COc1cc(CN(Cc2cn3c4c(c(N5CCC(N)C5)c(F)cc4c2=O)OCC3C)[C@H]2CCCN(c3ccc(N)nc3)C2)ccn1.Cl (stereo partly drawn) [Compound 34, 6-((((S)-1-(6-aminopyridin-3-yl)piperidin-3-yl)((2-methoxypyridin-4-yl)methyl)amino)methyl)-10-(3-aminopyrrolidin-1-yl)-9-fluoro-3-methyl-2H-[1,4]oxazino[2,3,4-ij]quinolin-7(3H)-one Hydrochloride]"
8,986.1,"COc1cc(CN(Cc2cn3c4c(c(N5CC6(COC6)C5)c(F)cc4c2=O)OCC3C)[C@H]2CCCN(c3ccc(N)nc3)C2)ccn1 (stereo partly drawn) [Compound 30, 6-((((S)-1-(6-aminopyridin-3-yl)piperidin-3-yl)((2-methoxypyridin-4-yl)methyl)amino)methyl)-9-fluoro-3-methyl-10-(2-oxa-6-azaspiro[3.3]heptan-6-yl)-2H-[1,4]oxazino[2,3,4-ij]quinolin-7(3H)-one]"

# From patent publication US20250171461A1, “STIMULATOR OF INTERFERON GENES (STING) MODULATORS, AND COMPOSITIONS AND METHODS THEREOF” (Geode Therapeutics Inc., priority 2022, published 2025)
